Assays:
[1] = target: T1, Ubiquitin thioesterase OTUB1 (Homo sapiens, UniProt Q96FW1); experiment: Inhibition of N-terminal His-6 tagged OTUB1 (40 to 271 residues) (unknown origin) expressed in Escherichia coli BL21 (DE3) cells at 10 nM using Ub-Rho measured after 0.5 to 3 hrs by fluorescence based Plate reader method relative to control; settings: time 0.5-3 hrs, values are per cent of control
[2] = target: T1, Ubiquitin thioesterase OTUB1; experiment: Inhibition of N-terminal His-6 tagged OTUB1 (40 to 271 residues) (unknown origin) expressed in Escherichia coli BL21 (DE3) cells at 100 nM using Ub-Rho measured after 0.5 to 3 hrs by fluorescence based Plate reader method relative to control; settings: time 0.5-3 hrs, values are per cent of control
[3] = target: T2, Ubiquitin carboxyl-terminal hydrolase 8 (Homo sapiens) (UniProt P40818); experiment: Inhibition of N-terminal His-6 tagged USP8 (734 to 1110 residues) (unknown origin) expressed in Escherichia coli BL21 (DE3) cells at 100 nM measured after 3 hrs by fluorescence based Plate reader method relative to control; settings: values are per cent of control
T2 sequence (whole entry): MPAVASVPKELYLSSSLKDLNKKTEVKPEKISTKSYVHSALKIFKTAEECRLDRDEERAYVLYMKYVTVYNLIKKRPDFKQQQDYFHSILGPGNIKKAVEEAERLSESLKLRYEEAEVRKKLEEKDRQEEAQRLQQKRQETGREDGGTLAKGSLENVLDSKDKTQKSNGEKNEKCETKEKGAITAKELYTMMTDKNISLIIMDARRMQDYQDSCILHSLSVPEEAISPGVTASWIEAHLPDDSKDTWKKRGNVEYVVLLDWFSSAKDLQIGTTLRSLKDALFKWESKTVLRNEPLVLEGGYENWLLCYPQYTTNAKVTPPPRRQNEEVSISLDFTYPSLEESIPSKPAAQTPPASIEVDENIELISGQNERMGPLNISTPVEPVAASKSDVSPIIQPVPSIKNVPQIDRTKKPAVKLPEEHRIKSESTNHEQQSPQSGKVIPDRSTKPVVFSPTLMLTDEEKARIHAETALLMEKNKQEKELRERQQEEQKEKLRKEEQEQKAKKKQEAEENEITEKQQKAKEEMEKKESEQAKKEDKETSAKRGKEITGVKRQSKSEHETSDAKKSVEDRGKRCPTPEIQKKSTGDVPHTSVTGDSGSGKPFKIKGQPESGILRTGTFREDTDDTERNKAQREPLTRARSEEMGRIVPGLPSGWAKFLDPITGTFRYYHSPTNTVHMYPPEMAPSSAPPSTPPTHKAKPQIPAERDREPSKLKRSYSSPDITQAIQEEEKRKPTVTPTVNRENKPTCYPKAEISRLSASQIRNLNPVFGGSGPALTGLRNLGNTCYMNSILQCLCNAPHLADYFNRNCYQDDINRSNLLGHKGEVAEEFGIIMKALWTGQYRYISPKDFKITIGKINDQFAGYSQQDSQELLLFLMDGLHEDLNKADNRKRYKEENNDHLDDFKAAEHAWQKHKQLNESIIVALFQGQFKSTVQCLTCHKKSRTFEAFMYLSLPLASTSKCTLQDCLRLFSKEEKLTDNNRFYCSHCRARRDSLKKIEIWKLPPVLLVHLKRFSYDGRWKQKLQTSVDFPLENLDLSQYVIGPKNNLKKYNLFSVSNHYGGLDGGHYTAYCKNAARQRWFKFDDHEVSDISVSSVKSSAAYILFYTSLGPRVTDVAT

[4] = target: T2, Ubiquitin carboxyl-terminal hydrolase 8 (Homo sapiens); experiment: Inhibition of N-terminal His-6 tagged USP8 (734 to 1110 residues) (unknown origin) expressed in Escherichia coli BL21 (DE3) cells at 10 nM measured after 3 hrs by fluorescence based Plate reader method relative to control; settings: values are per cent of control

T1 sequence (Q96FW1 whole entry, the tested form may be a part): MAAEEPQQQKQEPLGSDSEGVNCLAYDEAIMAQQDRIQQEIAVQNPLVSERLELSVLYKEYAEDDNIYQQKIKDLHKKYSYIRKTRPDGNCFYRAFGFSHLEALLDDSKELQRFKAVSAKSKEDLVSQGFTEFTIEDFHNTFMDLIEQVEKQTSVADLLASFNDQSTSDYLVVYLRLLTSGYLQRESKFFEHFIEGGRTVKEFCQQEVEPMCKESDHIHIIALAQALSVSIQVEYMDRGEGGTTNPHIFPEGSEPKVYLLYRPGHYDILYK

Structure (SMILES)	residual activity [1]	residual activity [2]	residual activity [3]	residual activity [4]
O=C1c2ccccc2C(=O)c2oc(-c3ccc([N+](=O)[O-])cc3)nc21	36.1%	16.3%	9.3%	20.2%
O=C1c2ccccc2C(=O)c2oc(-c3c(F)ccc(F)c3F)nc21	40.7%	15.6%	21.9%	36.6%
COc1cc(F)cc(-c2nc3c(o2)C(=O)c2ccccc2C3=O)c1	62.8%	25.1%	17.6%	37.2%
COc1ccc(F)c(-c2nc3c(o2)C(=O)c2ccccc2C3=O)c1Cl	23.3%	20.5%	23.6%	41.5%
O=C1c2ccccc2C(=O)c2oc(-c3cccc(F)c3)nc21	55.3%	26.3%	37.2%	59.1%
CN1CCN(CCOc2cc(-c3nc4c(o3)C(=O)c3ccccc3C4=O)ccc2Cl)CC1	75.9%	38.2%	50.9%	82%
COc1ccc(Cl)c(-c2nc3c(o2)C(=O)c2ccccc2C3=O)c1F	48.7%	26.3%	20.4%	74.1%
COc1c(Cl)ccc(Cl)c1-c1nc2c(o1)C(=O)c1ccccc1C2=O	69.4%	42.4%	35.6%	56.9%
Cc1cccc(Cl)c1-c1nc2c(o1)C(=O)c1ccccc1C2=O	55.4%	23.5%	15.5%	40.1%
Cc1cccc(-c2nc3c(o2)C(=O)c2ccccc2C3=O)c1	63.1%	49.2%	40.9%	63.6%
O=C1c2ccccc2C(=O)c2oc(-c3ccc(Cl)cc3)nc21	61.3%	34.2%	22.5%	55.9%
CN(C)CCOc1cccc(-c2nc3c([nH]2)C(=O)c2ccccc2C3=O)c1	86.5%	80.4%	86.4%	88.7%
Cc1ccc(-c2nc3c(o2)C(=O)c2ccccc2C3=O)cc1	66.9%	58.7%	44.6%	58.6%
O=C1c2ccccc2C(=O)c2oc(-c3cccc([N+](=O)[O-])c3)nc21	47.8%	18.9%	29.4%	41.9%
O=C1c2ccccc2C(=O)c2oc(-c3ccccc3Cl)nc21	60%	25.1%	20.8%	43.1%
COc1ccccc1-c1nc2c(o1)C(=O)c1ccccc1C2=O	59.2%	28.3%	21.4%	43.9%
O=C1c2ccccc2C(=O)c2oc(-c3c(F)cccc3F)nc21	56.2%	24%	37.4%	39.1%
O=C1c2ccccc2C(=O)c2oc(-c3c(Cl)cccc3Cl)nc21	52.4%	21%	24.9%	44.6%
COc1cccc(-c2nc3c(o2)C(=O)c2ccccc2C3=O)c1	61.7%	30.9%	32.9%	52.7%
COc1cc(Cl)cc(-c2nc3c(o2)C(=O)c2ccccc2C3=O)c1	74.4%	40.7%	24%	49%
O=C1c2ccccc2C(=O)c2oc(-c3cccc(Cl)c3)nc21	60.4%	34.7%	49.3%	66.3%
O=C1c2ccccc2C(=O)c2oc(-c3ccccc3[N+](=O)[O-])nc21	47.2%	19%	21.6%	51.1%
COc1cc(-c2nc3c(o2)C(=O)c2ccccc2C3=O)ccc1Cl	70.2%	40.4%	30%	53.6%
CN1CCN(CCOc2cccc(-c3nc4c(o3)C(=O)c3ccccc3C4=O)c2)CC1	66.8%	36.9%	53.6%	76.4%
O=C1c2ccccc2C(=O)c2oc(-c3cc(Cl)ccc3Cl)nc21	52.7%	25.2%	32.2%	44.5%
O=C1c2ccccc2C(=O)c2oc(-c3c(F)c(F)cc(F)c3F)nc21	39.4%	14.1%	24.1%	38.3%

The remaining lines, values ahead:

residual activity [1]	residual activity [2]	residual activity [3]	residual activity [4]	Structure (SMILES)
74.7%	42.4%	42.5%	63.2%	CN1CC[C@@H](Oc2ccc(-c3nc4c(o3)C(=O)c3ccccc3C4=O)c(C(F)(F)F)c2)C1
62.4%	42.2%	16%	58.4%	O=C1c2ccccc2C(=O)c2oc(-c3ccc(Cl)cc3Cl)nc21
60.3%	29%	18.2%	37.8%	O=C1c2ccccc2C(=O)c2oc(-c3ccc(C(F)(F)F)cc3)nc21
84.9%	41.7%	18.6%	80.5%	COc1ccc(-c2nc3c(o2)C(=O)c2ccccc2C3=O)c(C(F)(F)F)c1
75%	31.2%	33.1%	61.1%	COc1ccc(F)c(-c2nc3c(o2)C(=O)c2ccccc2C3=O)c1
76.7%	41.3%	38.6%	71.6%	CN1CC[C@@H](Oc2cccc(-c3nc4c(o3)C(=O)c3ccccc3C4=O)c2F)C1
69.8%	38.5%	31.2%	65.5%	CN1CC[C@@H](Oc2ccc(-c3nc4c(o3)C(=O)c3ccccc3C4=O)cc2Cl)C1
75%	41.5%	34.2%	59.3%	CN1CC[C@@H](Oc2cc(Cl)cc(-c3nc4c(o3)C(=O)c3ccccc3C4=O)c2)C1
62.6%	25.8%	17.7%	50.7%	O=C1c2ccccc2C(=O)c2oc(-c3ccccc3C(F)(F)F)nc21
70.7%	34%	30%	68.3%	CN1CC[C@@H](Oc2cccc(-c3nc4c(o3)C(=O)c3ccccc3C4=O)c2)C1
52.9%	22.4%	25.5%	42.6%	COc1cccc(-c2nc3c(o2)C(=O)c2ccccc2C3=O)c1F
71.4%	46.4%	42.7%	58.5%	COc1cc(-c2nc3c(o2)C(=O)c2ccccc2C3=O)ccc1C(F)(F)F
63.2%	25.8%	24%	47.1%	COc1ccc(Cl)c(-c2nc3c(o2)C(=O)c2ccccc2C3=O)c1

Source: ChEMBL document CHEMBL5108067, “Discovery of Potent OTUB1/USP8 Dual Inhibitors Targeting Proteostasis in Non-Small-Cell Lung Cancer” (J Med Chem, 2022)
